Results: patent US20030105144A1, “Stabilized oral pharmaceutical composition” (priority 2001, published 2003)

Experiment: Solubility of celecoxib in PEG-400/water
Assay type: physicochemical
Conditions: 2:1 mixture of PEG-400 and water
Description: Water-miscible, nonvolatile liquids such as polyethylene glycols have been successfully used in encapsulated solution formulations. Moreover, polyethylene glycols are also good solvents for drugs of low water solubility because they are known to improve aqueous drug solubility. For example, celecoxib, which has very low solubility in water, is highly soluble (>300 mg/g) in a 2:1 mixture of PEG-400 and water.

- solubility: > 300 mg/g
Compound: Cc1ccc(-c2cc(C(F)(F)F)nn2-c2ccc(S(N)(=O)=O)cc2)cc1 [celecoxib, 4-[5-(4-methylphenyl)-3-(trifluoromethyl)-1H-pyrazol-1-yl]benzenesulfonamide]
